{
  "source": "patent EP3228306A1",
  "about": "“COMPLEX COMPOUND COMPRISING OBETICHOLIC ACID AND CYCLODEXTRIN AND PHARMACEUTICAL FORMULATION COMPRISING THE COMPLEX COMPOUND” (ratiopharm GmbH, priority 2016, dated 2017)",
  "key": {"[1]": {"details": "reported in WO 2013/192097; measured in 0.1 N HCl after equilibration under stirring for one week at 25°C; cited from earlier work"}, "[2]": {"details": "cited from earlier work"}, "[3]": {"experiment": "Solubility of OCA:CD complexes in physiologically relevant media", "assay_type": "physicochemical", "details": "thermodynamic from solid, 37°C, complex corresponding to 20 mg obeticholic acid in 2 mL", "method": "Obeticholic acid (OCA) or OCA: Cyclodextrin (CD) complex was weighed into a glass vial, followed by addition of 1 or 2 ml solvent (water, 0.01 N HCl, phosphate buffer pH 6.8 and FaSSIF). A stirring bar was added, the vial was fixed in a block heater at 37°C and the suspension was stirred with approx. 250 rpm. After 15 min and 1 h, samples were withdrawn, filtered through a 0.2 µm disposable filter, 100 µl of the clear filtrate were diluted with 900 µl acetonitrile (ACN):Water (1:1) and 1 µl thereof were analyzed by UHPLC/UV.\nSolubilities of OCA:CD complexes were determined by stirring an amount of complex which corresponds to 20 mg of obeticholic acid (calculated from the known drug loads) in 2 mL of solvent for 15 min and 60 min at 37°C according to the method described above under \"Analytical Methods\". Solubility values are given in mg/ml."}, "[4]": {"experiment": "Solubility of OCA in concentrated aqueous CD solutions (Experiment 2)", "assay_type": "physicochemical", "details": "stirred 60 h", "method": "Variable amounts of solid OCA (left column of the Tables given below) were stirred in aqueous CD-solutions (14% (w/w) α-CD, 1.8% β-CD, 20% γ-CD, 20% HP-β-CD, 30% SB-β-CD, 30% RM-β-CD, and 40% HP-γ-CD) for 60 h. Aliquots were filtered through 0.2 µm disposable PTFE filters and the filtrates were analyzed by HPLC/UV. The concentration of OCA was determined based on a calibration curve which was established by twofold analysis of five calibration standards with 0.01 mg/mL to 1.0 mg/mL OCA."}},
  "note": "Read-outs that look alike come from different tables or passages of the source.",
  "data": [
    {"compound": "CC[C@H]1[C@@H](O)[C@@H]2[C@H](CC[C@]3(C)[C@@H]([C@H](C)CCC(=O)O)CC[C@@H]23)[C@@]2(C)CC[C@@H](O)C[C@@H]12", "note": "[OCA, 6α-ethyl-chenodeoxycholic acid]", "values": [
      {"measurement": "water solubility", "setting": "[1]", "value": 7.5, "unit": "µg/mL"},
      {"measurement": "thermodynamic pKa", "setting": "[2]", "value": "about 5"},
      {"measurement": "solubility at 15 min", "setting": "[3]; 0.01 N HCl, pH 2.2, simulated gastric fluid, read-out: Solubility, 0.01 N HCl (pH 2.2), 15 min", "value": "< 10", "unit": "µg/mL"},
      {"measurement": "solubility at 60 min", "setting": "[3]; 0.01 N HCl, pH 2.2, simulated gastric fluid, read-out: Solubility, 0.01 N HCl (pH 2.2), 60 min", "value": "< 10", "unit": "µg/mL"},
      {"measurement": "solubility at 15 min", "setting": "[3]; 50 mM KH2PO4 phosphate buffer, pH 6.5, aqueous buffer, read-out: Solubility, 50 mM KH2PO4 (pH 6.5), 15 min", "value": 110, "unit": "µg/mL"},
      {"measurement": "solubility at 60 min", "setting": "[3]; 50 mM KH2PO4 phosphate buffer, pH 6.5, aqueous buffer, read-out: Solubility, 50 mM KH2PO4 (pH 6.5), 60 min", "value": 110, "unit": "µg/mL"},
      {"measurement": "solubility at 15 min", "setting": "[3]; FaSSIF, pH 6.5, fassif, Fasted State Simulated Intestinal Fluid, read-out: Solubility, FassiF* (pH 6.5), 15 min", "value": 520, "unit": "µg/mL"},
      {"measurement": "solubility at 60 min", "setting": "[3]; FaSSIF, pH 6.5, fassif, Fasted State Simulated Intestinal Fluid, read-out: Solubility, FassiF* (pH 6.5), 60 min", "value": 420, "unit": "µg/mL"},
      {"measurement": "solubility at 15 min", "setting": "[3]; water, pH 7, water, read-out: Solubility, Water (pH 7), 15 min", "value": "< 10", "unit": "µg/mL"},
      {"measurement": "solubility at 60 min", "setting": "[3]; water, pH 7, water, read-out: Solubility, Water (pH 7), 60 min", "value": "< 10", "unit": "µg/mL"},
      {"measurement": "dissolved OCA", "setting": "[4]; HP-β-CD (20%) aqueous solution, OCA 10 mg/mL weighed", "value": 9.425, "unit": "mg/mL"},
      {"measurement": "dissolved OCA", "setting": "[4]; HP-β-CD (20%) aqueous solution, OCA 20 mg/mL weighed", "value": 18.716, "unit": "mg/mL"},
      {"measurement": "dissolved OCA", "setting": "[4]; HP-β-CD (20%) aqueous solution, OCA 40 mg/mL weighed", "value": 37.499, "unit": "mg/mL"},
      {"measurement": "dissolved OCA", "setting": "[4]; HP-β-CD (20%) aqueous solution, OCA 50 mg/mL weighed", "value": 45.473, "unit": "mg/mL"},
      {"measurement": "dissolved OCA", "setting": "[4]; HP-β-CD (20%) aqueous solution, OCA 60 mg/mL weighed", "value": 45.785, "unit": "mg/mL"},
      {"measurement": "dissolved OCA", "setting": "[4]; HP-γ-CD (40%) aqueous solution, OCA 10 mg/mL weighed", "value": 8.704, "unit": "mg/mL"},
      {"measurement": "dissolved OCA", "setting": "[4]; HP-γ-CD (40%) aqueous solution, OCA 20 mg/mL weighed", "value": 18.095, "unit": "mg/mL"},
      {"measurement": "dissolved OCA", "setting": "[4]; HP-γ-CD (40%) aqueous solution, OCA 40 mg/mL weighed", "value": 35.632, "unit": "mg/mL"},
      {"measurement": "dissolved OCA", "setting": "[4]; HP-γ-CD (40%) aqueous solution, OCA 80 mg/mL weighed", "value": 62.989, "unit": "mg/mL"},
      {"measurement": "dissolved OCA", "setting": "[4]; RM-β-CD (30%) aqueous solution, OCA 20 mg/mL weighed", "value": 17.374, "unit": "mg/mL"},
      {"measurement": "dissolved OCA", "setting": "[4]; RM-β-CD (30%) aqueous solution, OCA 40 mg/mL weighed", "value": 37.316, "unit": "mg/mL"},
      {"measurement": "dissolved OCA", "setting": "[4]; RM-β-CD (30%) aqueous solution, OCA 80 mg/mL weighed", "value": 63.629, "unit": "mg/mL"},
      {"measurement": "dissolved OCA", "setting": "[4]; RM-β-CD (30%) aqueous solution, OCA 160 mg/mL weighed", "value": 78.693, "unit": "mg/mL"},
      {"measurement": "dissolved OCA", "setting": "[4]; SB-β-CD (30%) aqueous solution, OCA 20 mg/mL weighed", "value": 17.545, "unit": "mg/mL"},
      {"measurement": "dissolved OCA", "setting": "[4]; SB-β-CD (30%) aqueous solution, OCA 40 mg/mL weighed", "value": 38.735, "unit": "mg/mL"},
      {"measurement": "dissolved OCA", "setting": "[4]; SB-β-CD (30%) aqueous solution, OCA 80 mg/mL weighed", "value": 60.767, "unit": "mg/mL"},
      {"measurement": "dissolved OCA", "setting": "[4]; SB-β-CD (30%) aqueous solution, OCA 160 mg/mL weighed", "value": 57.080, "unit": "mg/mL"},
      {"measurement": "dissolved OCA", "setting": "[4]; α-CD (14%) aqueous solution, OCA 5 mg/mL weighed", "value": 4.614, "unit": "mg/mL"},
      {"measurement": "dissolved OCA", "setting": "[4]; α-CD (14%) aqueous solution, OCA 10 mg/mL weighed", "value": 6.154, "unit": "mg/mL"},
      {"measurement": "dissolved OCA", "setting": "[4]; α-CD (14%) aqueous solution, OCA 20 mg/mL weighed", "value": 6.937, "unit": "mg/mL"},
      {"measurement": "dissolved OCA", "setting": "[4]; α-CD (14%) aqueous solution, OCA 40 mg/mL weighed", "value": 7.141, "unit": "mg/mL"},
      {"measurement": "dissolved OCA", "setting": "[4]; β-CD (1.8%) aqueous solution, OCA 2.5 mg/mL weighed", "value": 2.229, "unit": "mg/mL"},
      {"measurement": "dissolved OCA", "setting": "[4]; β-CD (1.8%) aqueous solution, OCA 5 mg/mL weighed", "value": 4.312, "unit": "mg/mL"},
      {"measurement": "dissolved OCA", "setting": "[4]; β-CD (1.8%) aqueous solution, OCA 10 mg/mL weighed", "value": 4.830, "unit": "mg/mL"},
      {"measurement": "dissolved OCA", "setting": "[4]; β-CD (1.8%) aqueous solution, OCA 20 mg/mL weighed", "value": 4.880, "unit": "mg/mL"},
      {"measurement": "dissolved OCA", "setting": "[4]; γ-CD (20%) aqueous solution, OCA 5 mg/mL weighed", "value": 0.069, "unit": "mg/mL"},
      {"measurement": "dissolved OCA", "setting": "[4]; γ-CD (20%) aqueous solution, OCA 10 mg/mL weighed", "value": 0.069, "unit": "mg/mL"},
      {"measurement": "dissolved OCA", "setting": "[4]; γ-CD (20%) aqueous solution, OCA 20 mg/mL weighed", "value": 0.066, "unit": "mg/mL"},
      {"measurement": "dissolved OCA", "setting": "[4]; γ-CD (20%) aqueous solution, OCA 40 mg/mL weighed", "value": 0.055, "unit": "mg/mL"}
    ]}
  ]
}
